Measured values reported in patent US9421254B2, “Immunostimulatory combinations of TLR ligands and methods of use” (The United States of America, as represented by the …, priority 2007, dated 2016).
“Also recorded” adds a separate entry of the source.

How the values were obtained:
BMDCs [1] = test: Intracellular IL-12 and CD86 on BMDCs treated in vitro with TLR ligands (flow cytometry); conditions: for inducing IL-12 production from DCs / upregulation of CD86 expression: TLR4 ligand alone; for inducing IL-12 production from DCs: relative to MALP-2+PolyI:C and PolyI:C+CpG; for upregulation of CD86 expression: relative to PolyI:C, FIG. 9B; for synergy with PolyI:C in IL-12 production: TLR2 ligand combined with PolyI:C
purified T cells = test: Purified T cells cultured with recombinant cytokines/chemokines (CD69); type: cell-based, mouse; conditions: added to MyD88-dependent cytokines; FIG. 12B
Description: Panel (A) is a graph showing the results when BMDC pretreated with MALP-2+PolyI:C were cultured with purified T cells in the presence of neutralizing antibodies against cytokines as indicated. CD69+ T cells were measured 24 hours later. Panel (B) is a graph showing the results when purified T cells were culture in the presence of IL-12 (25 ng/ml), TNFa (10 ng/ml), MIP-1a (50 ng/ml) and IP-10 (25 ng/ml) singly or in combinations as indicated. CD69+CD8+ T cells were measured after 24 hours of treatment.
As there are several MyD88-dependent inflammatory cytokines that are produced downstream of the JNK/c-Jun pathway, blocking one of these cytokines may not be expected to abolish the synergy effect.

BMDCs [2] = test: Secreted cytokines/chemokines from BMDCs treated in vitro with TLR ligands (multiplex); type: cell-based, mouse; conditions: FIG. 3D
[3] = test system: popliteal LN MHC class II+CD11c+ DCs; test: DC activation in popliteal LNs after footpad immunization with TLR ligands; type: in vivo, mice; conditions: FIG. 5D
Description: Mice were immunized in the footpads with MALP-2, PolyI:C and CpG singly or pairwise. Paired popliteal LN cells were isolated 36 hours later for assay by flow cytometry. […] Panel (D) is a graph showing CD86 expression on DCs.
If this hypothesis were true, it may be expected that use of synergistic combinations of TLRs as adjuvant would result in similar activation of DCs in vivo. To test this hypothesis, DCs were isolated from popliteal LNs following footpad immunization with TLR ligands and examined ex vivo. […] Therefore, the interplay of TLRs in activating DCs in vivo is nonrandom and mediated through potentiating MyD88-dependent cytokines that could account for the activation of specific T cells.

| Compound | inducing IL-12 production from DCs (BMDCs [1]) | upregulation of CD86 expression (BMDCs [1]) | synergy with PolyI:C in IL-12 production (BMDCs [1]; FIG. 9A) | also measured |
| --- | --- | --- | --- | --- |
| CCCCCCCCCCCC(=O)CC(=O)N[C@H](COCC[C@@H](CCCCCCC)OC(=O)CCCCCCCCCCC)COP(=O)(O)OCCNC(=O)NCCOP(=O)(O)OC[C@@H](COCC[C@@H](CCCCCCC)OC(=O)CCCCCCCCCCC)NC(=O)CC(=O)CCCCCCCCCCC [E6020] | equivalent | efficacy equivalent to PolyI:C | – | – |
| IP-10: Recombinant IP-10 protein purchased from Peprotech | – | – | – | enhancement of the CD69 response already induced by the MyD88-dependent cytokines (purified T cells): did not significantly enhance |
| Lipoteichoic acids [LTA] | – | – | could also act synergistically and did | – |
| PAM3CSK4 | – | – | could not; also recorded: did not synergize | – |
| lipopolysaccharide [LPS] | equivalent | efficacy equivalent to PolyI:C | – | – |
| macrophage activating lipoprotein (MALP-2) | – | – | did | further increase in IP-10 production compared to PolyI:C alone (BMDCs [2]; ligand added to PolyI:C): did not result in a further increase; increase in CD86 by LN DCs when ligand included with PolyI:C [3]: no significant increases; further increase in CD86 expression compared to PolyI:C alone (BMDCs [1]; ligand added to PolyI:C, FIG. 3C): did not result in a further increase |
| monophosphoryl lipid A [MPL] | equivalent | efficacy equivalent to PolyI:C | – | – |
| polyinosine-polycytidylic acid [PolyI:C] | – | – | – | IP-10 production by DCs (BMDCs [2]; ligand alone): produce IP-10; expression of CD86 by LN DCs ([3]; ligand alone): upregulated; IL-12 production on addition to the TLR4 stimulation (BMDCs [1]; FIG. 9A): did not further enhance; CD86 expression on DCs (BMDCs [1]; ligand alone, FIG. 3C): upregulate CD86 expression |
